Assay results: US5084468A, “DC-88A derivatives” (Kyowa Hakko Kogyo Co., Ltd., priority 1988, dated 1992)
Like-named read-outs stand apart in the source and are kept apart here.

Key:
[1] = tested on: HeLa S3 cells; test: Growth inhibition of HeLa S3 cells (neutral red, 72 hours); type: cell-based; settings: Homo sapiens, read-out: IC50 (drug concentration which inhibited growth of HeLa S3 cells by 50%)
Description: Test on Growth Inhibition of HeLa S3 cells
HeLa S3 cells diluted to 3 x 10^4 cells/ml with MEM medium containing 10% calf fetal serum and 2 mM glutamine were separately distributed by 0.1 ml each in each well of a 96 well microtiter plate.
After culturing at 37° C. overnight in a CO2 -incubator, 0.05 ml each of a test sample appropriately diluted with MEM medium was added to each well.
After culturing the cells for 72 hours in the CO2 -incubator, the culture supernatant was removed. After washing once with phosphate buffered physiological saline (PBS), 0.1 ml each of MEM medium containing 0.02% neutral red was added to each well and then cultured at 37° C. for an hour in the CO2 -incubator to stain the cells. After removing the culture supernatant, the cells were washed once with physiological saline, and the dye was extracted with 0.001N HCl/30% ethanol. Absorbance at […] of the extract was measured with a microplate reader. By comparing absorbance of extract of intact cells with that of the cells treated with a test compound in known concentrations, IC50, i.e. a drug concentration which inhibited growth of the cells by 50% was determined.

[2] = tested on: dd strain male mice; type: in vivo; settings: intraperitoneal, 14 days observation
Description: Using dd strain male mice weighing 20±1 g, a test compound was intraperitoneally administered. MLD (the minimum lethal dose) was determined by observing the mortality for 14 days after administration.

[3] = tested on: lymphocytic leukemia P388; settings: lymphocytic leukemia P388, etc.; cited from earlier work
[4] = tested on: various bacteria; settings: cited from earlier work
[5] = HeLa S3 cells, 72 hours, neutral red staining

| Compound | IC50 [1, 5] [nM] | IC50 ([1]; HeLa S3, 72 h) [nM] | Acute Toxicity (MLD), minimum lethal dose [2] [mg/kg] | further results |
| --- | --- | --- | --- | --- |
| COC(=O)C1(C)NC2=C(C1=O)C13CC1CN(C(=O)c1cc4ccccc4[nH]1)C3=CC2=O (stereo not shown) [Compound 1] | 1.1 |  |  |  |
| COC(=O)C1(C)Nc2c(O)cc3c(c2C1=O)C(CBr)CN3C(=O)c1cc2ccccc2[nH]1 (stereo not shown) [Compound 2] |  | 0.054 | 0.25 |  |
| COC(=O)C1(C)Nc2c(O)cc3c(c2C1=O)C(CBr)CN3C(=O)c1cc2cc(OC)ccc2[nH]1 (stereo not shown) [Compound 3] |  |  | 0.063 |  |
| COC(=O)C1(C)Nc2c(O)cc3c(c2C1=O)C(CBr)CN3C(=O)c1cc2ccccc2o1 (stereo not shown) [Compound 4] |  | 0.1 | 0.25 |  |
| COC(=O)C1(C)Nc2c(O)cc3c(c2C1=O)C(CI)CN3C(=O)c1cc2cc(OC)c(OC)c(OC)c2[nH]1 (stereo not shown) [Compound 5] | 0.011 |  |  |  |
| COC(=O)C1(C)NC2=C(C1=O)C13CC1CN(C(=O)/C=C/c1ccccc1)C3=CC2=O (stereo not shown) [Compound 6] | 2.3 |  |  |  |
| COC(=O)C1(C)Nc2c(O)cc3c(c2C1=O)C(CBr)CN3C(=O)/C=C/c1ccccc1 (stereo not shown) [Compound 7] |  | 5.7 | 1.0 |  |
| COC(=O)C1(C)NC2=C(C1=O)C13CC1CN(C(=O)Nc1ccccc1)C3=CC2=O (stereo not shown) [Compound 8] | 3.2 |  |  |  |
| COC(=O)C1(C)Nc2c(O)cc3c(c2C1=O)C(CBr)CN3C(=O)Nc1ccccc1 (stereo not shown) [Compound 9] | 2.6 |  |  |  |
| COC(=O)C1(C)NC2=C(C1=O)C13CC1CN(C(=O)COc1ccccc1)C3=CC2=O (stereo not shown) [Compound 14] | 6.7 |  |  |  |
| COC(=O)C1(C)Nc2c(O)cc3c(c2C1=O)C(CBr)CN3C(=O)COc1ccccc1 (stereo not shown) [Compound 15] |  | 3.1 | 4.0 |  |
| COC(=O)C1(C)NC2=C(C1=O)C13CC1CNC3=CC2=O (stereo not shown) [Compound 18] | 3900 |  |  |  |
| COC(=O)C1(C)Nc2c(O)cc3c(c2C1=O)C(CBr)CN3C(=O)CNc1ccccc1 (stereo not shown) [Compound 19] |  |  | 2.5 |  |
| COC(=O)C1(C)Nc2c(O)cc3c(c2C1=O)C(CBr)CN3C(C)=O (stereo not shown) [Compound 22] |  |  | 13 |  |
| COC(=O)C1(C)NC2=C(C1=O)C13CC1CN(C(=O)c1cc4cc(OC)c(OC)cc4[nH]1)C3=CC2=O (stereo not shown) [Compound 23] | < 0.024 |  |  |  |
| COC(=O)C1(C)Nc2c(O)cc3c(c2C1=O)C(CBr)CN3C(=O)c1cc2cc(OC)c(OC)cc2[nH]1 (stereo not shown) [Compound 24] |  | 0.024 | 0.25 |  |
| COC(=O)C1(C)NC2=C(C1=O)C13CC1CN(C(=O)c1cc4ccccc4s1)C3=CC2=O (stereo not shown) [Compound 25] | 7.6 |  |  |  |
| COC(=O)C1(C)Nc2c(O)cc3c(c2C1=O)C(CBr)CN3C(=O)c1cc2ccccc2s1 (stereo not shown) [Compound 26] |  |  | 2.2 |  |
| COC(=O)C1(C)NC2=C(C1=O)C13CC1CN(C(=O)/C=C/c1cccc(OC)c1)C3=CC2=O (stereo not shown) [Compound 27] | 0.6 |  |  |  |
| COC(=O)C1(C)Nc2c(O)cc3c(c2C1=O)C(CBr)CN3C(=O)/C=C/c1cccc(OC)c1 (stereo not shown) [Compound 28] |  | 2.5 | 0.16 |  |

| Compound | IC50 [1, 5] [nM] | IC50 ([1]; HeLa S3, 72 h) [nM] | Acute Toxicity (MLD), minimum lethal dose [2] [mg/kg] | further results |
| --- | --- | --- | --- | --- |
| COC(=O)C1(C)NC2=C(C1=O)C13CC1CN(C(=O)/C=C/c1ccc(OC)c(OC)c1)C3=CC2=O (stereo not shown) [Compound 29] |  | < 0.024 |  |  |
| COC(=O)C1(C)Nc2c(O)cc3c(c2C1=O)C(CBr)CN3C(=O)/C=C/c1ccc(OC)c(OC)c1 (stereo not shown) [Compound 30] |  | 0.034 | 0.082 |  |
| COC(=O)C1(C)Nc2c(O)cc3c(c2C1=O)C(CBr)CN3C(=O)C1Cc2ccccc2N1 (stereo not shown) [Compound 31] | 81 |  | 20 |  |
| COC(=O)C1(C)NC2=C(C1=O)C13CC1CN(C(=O)c1cc4cc(NC(=O)OC(C)(C)C)ccc4[nH]1)C3=CC2=O (stereo not shown) [Compound 32] |  |  | 0.25 |  |
| COC(=O)C1(C)Nc2c(O)cc3c(c2C1=O)C(CBr)CN3C(=O)c1cc2cc(N)ccc2[nH]1 (stereo not shown) [Compound 33] | 0.88 |  |  |  |
| COC(=O)C1(C)Nc2c(O)cc3c(c2C1=O)C(CBr)CN3C(=O)c1cc2cc(OC)ccc2o1 (stereo not shown) [Compound 34] |  | 0.05 | 0.063 |  |
| COC(=O)C1(C)Nc2c(O)cc3c(c2C1=O)C(CBr)CN3C(=O)/C=C/c1cccc(OC(C)=O)c1 (stereo not shown) [Compound 35] |  | 0.94 | 0.25 |  |
| COC(=O)C1(C)Nc2c(O)cc3c(c2C1=O)C(CBr)CN3C(=O)/C=C/c1ccc(NC(=O)OCc2ccccc2)cc1 (stereo not shown) [Compound 36] |  |  | 1.3 |  |
| COC(=O)C1(C)Nc2c(O)cc3c(c2C1=O)C(CBr)CN3C(=O)/C=C/c1ccc(NC(C)=O)cc1 (stereo not shown) [Compound 37] | 0.74 |  |  |  |
| COC(=O)C1(C)Nc2c(O)cc3c(c2C1=O)C(CBr)CN3C(=O)/C=C/c1ccc(OC)cc1 (stereo not shown) [Compound 38] |  | 0.035 | 0.063 |  |
| COC(=O)C1(C)Nc2c(O)cc3c(c2C1=O)C(CBr)CN3C(=O)CCc1ccc(OC)c(OC)c1 (stereo not shown) [Compound 39] |  |  | 1.3 |  |
| COC(=O)C1(C)Nc2c(O)cc3c(c2C1=O)C(CBr)CN3C(=O)/C=C/c1ccc(N(C)C)cc1 (stereo not shown) [Compound 40] |  | 0.085 | 0.31 |  |
| COC(=O)C1(C)Nc2c(O)cc3c(c2C1=O)C(CBr)CN3C(=O)/C=C/c1ccc([N+](=O)[O-])cc1 (stereo not shown) [Compound 41] |  |  | 1.3 |  |
| COC(=O)C1(C)Nc2c(O)cc3c(c2C1=O)C(CBr)CN3C(=O)/C=C/c1ccc(C=O)cc1 (stereo not shown) [Compound 42] |  |  | 2.5 |  |
| COC(=O)C1(C)Nc2c(O)cc3c(c2C1=O)C(CBr)CN3C(=O)c1cc2cc(NC(=O)c3cc4ccccc4[nH]3)ccc2[nH]1 (stereo not shown) [Compound 45] |  | 1.1 | 0.63 |  |
| COC(=O)C1(C)Nc2c(O)cc3c(c2C1=O)C(CBr)CN3C(=O)c1cc2cc(NC(=O)c3cc4ccccc4o3)ccc2[nH]1 (stereo not shown) [Compound 46] |  | 0.4 | 0.63 |  |
| COC(=O)C1(C)Nc2c(O)cc3c(c2C1=O)C(CBr)CN3C(=O)/C=C/c1ccc(N)cc1 (stereo not shown) [Compound 48] | 1.2 |  |  |  |
| COC(=O)C1(C)Nc2c(O)cc3c(c2C1=O)C(CBr)CN3C(=O)c1cc2cc(OC)c(OCc3ccccc3)c(OC)c2[nH]1 (stereo not shown) [Compound 55] |  | 0.52 | 0.25 |  |
| COC(=O)C1(C)NC2=C(C1=O)C13CC1CN(C(=O)c1cc4cc(OC)c(OC)c(OC)c4[nH]1)C3=CC2=O (stereo not shown) [DC-88A] |  |  |  | antitumor activity against lymphocytic leukemia P388 [3]: antitumor activity against lymphocytic leukemia P388; antibacterial activity [4]: antibacterial activity against various bacteria |
